According to patent US6911460B2, “Antiviral agents and methods of treating viral infections” (Vion Pharmaceuticals, Inc., priority 2001, dated 2005):
Each block holds one compound with its values, some of them ahead of it.

Columns and labels:
HSV-1 (KOS) = assay: Virus yield assay, Triapine plus acyclovir against HSV-1; format: cell-based, herpes simplex virus; details: for EC90: virus yield assay, 48 hr, combinations: ACV with fixed Triapine concentration
Experimental: (§1) To evaluate the antiviral activities of Triapine, acyclovir, and combination thereof, HeLa S3 cells are seeded in 25-cm^2 flasks and are used as host cells for virus infection (laboratory strains of virus HSV-1, HSV-2, wild type (Darby et al., (1982) Nature, 289, 81-3; Cheng, et al., Antimicrob. Agents Chemother. 18, 957-61, 1980). After a 1-hr adsorption period with virus at 5-10 plaque-forming units per cell, the monolayers are rinsed with phosphate-buffered saline, followed by the addition of 5 ml of growth medium containing various concentrations of drug. Concentrations of Triapine tested range from 0.1 to 1.0 micromolar where concentrations of acyclovir are from 1-50 micromolar. The cells are incubated at 37° C. for 48 hr and then are stored frozen at −70° C. until titration. The amounts of HSV contained in cells are determined with Vero cells using the methods described by Cheng et al. (Cheng, et al., Antimicrob. Agents Chemother. 18, 957-61, 1980).
(§2) The results of the above-test are presented in the following Table 1, below, which presents the antiviral activity of Triapine, at low, non-toxic clinically achievable concentrations of 0.3, 0.6 and 1.0 μM, in combination with acyclovir against HSV-1 (KOS) and HSV-2 (333) strains of herpes simplex virus in a virus yield assay. […] A greater than 4-fold decrease in the EC90 of ACV against HSV-2 is observed with 0.6 μM Triapine.

HSV-2 (333) = assay: Virus yield assay, Triapine plus acyclovir against HSV-2; format: cell-based, herpes simplex virus; details: for EC90: virus yield assay, 48 hr, combinations: ACV with fixed Triapine concentration
Experimental: as §1, §2

[1] = test system: acyclovir-resistant HSV strains; details: in combination with acyclovir; cited from earlier work
[2] = set-up: dose or concentration left out as unconfirmed; details: cancer patients, 96-hour infusion; cited from earlier work
[3] = Solubility in aqueous solution
strain IIIB of HIV = assay: Anti-HIV activity of Triapine combinations in HIV-infected MT-2 cells (MTT, isobolograms); format: cell-based, HIV-1; details: FIG. 4
Experimental: MT-2 cells infected with strain IIIB of HIV (wildtype, 3TC resistant, or AZT resistant) are used for determining antiviral activities (Bridges et al., Biochem. Pharmacol. Vol. 51, 731-36, 1996). Cells are infected with virus at a multiplicity of infection of 0.1 TCID50/ml and added to wells containing serial 2-fold dilutions of drugs. MT-2 cells in RPMI 1640 medium supplemented with 10% dialyzed fetal bovine serum and 100 μg/mL Kanamnycin are infected with virus and immediately added to serial dilutions of the drugs. After 5 days, 20 μL of MTT dye (2.5 mg/mL in PBS) is added per well. At the end of the 4-h incubation period, 150 μL of acidified 2-propanol with 2% NP-40 nonionic detergent is added per well. After the crystals of dye are dissolved (usually 1-2 days), the plates are read on a microplate reader. Using this MTT-dye reduction method (Larder et al., (1990), Antimicrob. Agents Chemother. 34, 436-41), the percentage of protection can be calculated from the formula [(a−b)/(c−b)×100] in which a is the A595 of drug-treated virus-infected wells, b is the A595 of no-drug infected cells, and c is the A595 of the no-drug uninfected cells. The EC50 was calculated from linear log 10 plots of the percentage protection verses inhibition concentration.
Using the above-described experimental system, the ability of Triapine to potentiate the anti-HIV activity of the dideoxynucleoside analogs ddI (2′,3′-dideoxyinosine), D4T (2′,3′-dideoxydidehydrothymidine) and AZT (3′-azidothymidine) was examined in HIV-infected MT-2 cells (as described above).

HIV-infected cells = details: combined with 2′,3′-dideoxyinosine (DDI); cited from earlier work

decrease of the EC90 of ACV (HSV-1 (KOS); HSV-1, in the presence of 0.3 μM Triapine): 10 fold | decrease of the EC90 of ACV (HSV-1 (KOS); HSV-1, in the presence of 0.6 μM Triapine): greater than 24 fold | EC90 (HSV-1 (KOS); Human alphaherpesvirus 1): 29.3 µM | decrease in the EC90 of ACV (HSV-2 (333); HSV-2, with 0.6 μM Triapine): greater than 4 fold | EC90 (HSV-2 (333); Human alphaherpesvirus 2): 36.5 µM
Compound: Nc1nc2c(ncn2COCCO)c(=O)[nH]1 [ACV, acyclovir]

Compound: CC[C@@H](NC(=O)[C@@H](CC(=O)[C@@H](CC(=O)[C@@H](NC(=O)[C@H](C(C)C)N(C)C(=O)[C@H](C)CC1CCCCC1)C(C)(C)C)CC(=O)C(C)(C)C)C1(C(=O)O)CCCC1)C(C)(C)C [BILD1633 SE]
activity against acyclovir-resistant HSV strains [1]: had activity

Compound: NC(=S)NN=Cc1ncccc1N [Triapine, 3-aminopyridine-2-carboxyaldehyde thiosemicarbazone]
concentration of Triapine reached [2]: 1000 nM | EC90 (HSV-1 (KOS)): > 1 µM | EC90 (HSV-2 (333)): > 1 µM | solubility in aqueous solution [3]: less than 0.1 mg/ml | anti-HIV interaction (isobologram) (strain IIIB of HIV; combined with AZT): additive | anti-HIV interaction (isobologram) (strain IIIB of HIV; combined with D4T): synergistic | anti-HIV interaction (isobologram) (strain IIIB of HIV; combined with ddI): synergistic

Compound: NC(=O)NO [hydroxyurea]
effects against HIV-infected cells in combination (HIV-infected cells): synergistic effects
